The target in the test is T1, human recombinant renin (Homo sapiens, UniProt P00797).
T1 sequence (P00797 67-406): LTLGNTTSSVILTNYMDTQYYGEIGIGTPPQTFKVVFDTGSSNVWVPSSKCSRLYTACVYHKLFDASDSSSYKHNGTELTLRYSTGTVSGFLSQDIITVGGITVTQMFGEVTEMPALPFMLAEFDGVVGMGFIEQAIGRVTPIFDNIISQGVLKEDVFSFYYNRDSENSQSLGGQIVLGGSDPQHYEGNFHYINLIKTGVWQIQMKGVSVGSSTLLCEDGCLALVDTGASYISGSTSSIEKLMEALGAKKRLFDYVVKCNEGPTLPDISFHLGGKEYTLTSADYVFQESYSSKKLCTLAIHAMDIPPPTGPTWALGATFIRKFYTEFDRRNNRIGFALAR
Description: Inhibition of human recombinant renin, enzymatic in vitro assay with Ang I detection by EIA. The class given is biochemical. The settings on record: human recombinant renin 0.16 ng/mL, synthetic human angiotensin (1-14) 0.5 μM, 37° C. for 3 h; read-out: IC50 (concentration of renin inhibition that inhibited the enzyme activity by 50%). The protocol: Inhibition of Human Recombinant Renin by the Compounds of the Invention The enzymatic in vitro assay was performed in 384-well polypropylene plates (Nunc). The assay buffer consisted of 10 mM PBS (Gibco BRL) including 1 mM EDTA and 0.1% BSA. The incubates were composed of 50 μL per well of an enzyme mix and 2.5 µL of renin inhibitors in DMSO. The enzyme mix was premixed at 4° C. and consists of the following components: • human recombinant renin (0.16 ng/mL)●synthetic human angiotensin (1-14) (0.5 μM) • hydroxyquinoline sulfate (1 mM) The mixtures were then incubated at 37° C. for 3 h. To determine the enzymatic activity and its inhibition, the accumulated Ang I was detected by an enzyme immunoassay (EIA) in 384-well plates (Nunc). 5 μL of the incubates or standards were transferred to immuno plates which were previously coated with a covalent complex of Ang I and bovine serum albumin (Ang I—BSA). 75 μL of Ang I-antibodies in essaybuffer above including 0.01% Tween 20 were added and a primary incubation made at 4° C. overnight. The plates were washed 3 times with PBS including 0.01% Tween 20, and then incubated for 2 h at rt with an antirabbit-peroxidase coupled antibody (WA 934, Amersham).
With `Cc1c(CN(C(=O)C2=C(c3ccc(CCCOc4c(F)ccc(F)c4Cl)cc3)C[C@@H]3CC[C@H]2N3)C2CC2)ccnc1OCCC(N)=O` (racemic) [Example 7, (rac.)-(1R*, 5S*)-3-{4-[3-(2-Chloro-3,6-difluorophenoxy)propyl]phenyl}-8-azabicyclo[3.2.1]oct-2-ene-2-carboxylic acid [2-(2-carbamoylethoxy)-3-methylpyridin-4-ylmethyl]cyclopropylamide], the IC50 stood at 3 nM.

Regarding `COC(=O)CCOc1nccc(CN(C(=O)C2=C(c3ccc(CCCOc4c(F)ccc(F)c4Cl)cc3)CC3CCC2N3)C2CC2)c1C` (racemic) [Example 6, (rac.)-(1R *, 5S*)-3-(4-{[(3-({4-[3-(2-Chloro-3,6-difluorophenoxy)propyl]-phenyl}-8-azabicyclo[3.2.1]oct-2-ene-2-carbonyl)cyclopropylamino]methyl}-3-methylpyridin-2-yloxy)propionic acid methyl ester], the IC50 was determined as 6.7 nM.

Regarding `Cc1c(CN(C(=O)C2=C(c3ccc(CCCOc4c(F)ccc(F)c4Cl)cc3)C[C@@H]3CC[C@H]2N3)C2CC2)ccnc1OCCCO` (racemic) [Example 1, (rac.)-(1R*, 5S*)-3-{4-[3-(2-Chloro-3,6-difluorophenoxy)propyl]phenyl}-8-azabicyclo[3.2.1]oct-2-ene-2-carboxylic acid cyclopropyl-[2-(3-hydroxy-propoxy)-3-methylpyridin-4-ylmethyl]amide], the IC50 was found to be 0.25 nM.

Regarding `Cc1c(CN(C(=O)C2=C(c3ccc(CCCOc4c(F)ccc(F)c4Cl)cc3)C[C@@H]3CC[C@H]2N3)C2CC2)ccnc1OCCC(=O)O` (racemic) [Example 5, (rac.)-(1R*, 5S*)-3-(4-{[(3-{4-[3-(2-Chloro-3,6-difluorophenoxy)propyl]-phenyl}-8azabicyclo[3.2.1]oct-2-ene-2-carbonyl)cyclopropylamino]methyl}-3-methyl-pyridin-2-yloxy)propionic acid], the IC50 turned out to be 3 nM.

Regarding `Cc1cc(Cl)c(OCCOc2ccc(C3=C(C(=O)N(Cc4ccnc(OCCCO)c4C)C4CC4)C4CCC(C3)N4)cc2)c(Cl)c1` (racemic) [Example 2, (rac.)-(1R*, 5S*)-3-{4-[2-(2,6Dichloro-4-methylphenoxy)ethoxy]phenyl}-8-azabicyclo[3.2.1]oct-2-ene-2-carboxylic acid cyclopropyl-[2-3-hydroxy-propoxy)-3-methylpyridin4-ylmethyl]amide], the IC50 is 0.18 nM.

For the compound `Cc1c(CN(C(=O)C2=C(c3ccc(CCCOc4c(F)ccc(F)c4Cl)cc3)CC3COCC2N3)C2CC2)ccnc1OCCCO` (racemic) [Example 4, (rac.)-(1R*, 5S*)-7-(4-13-(2-Chloro-3,6-difluorophenoxy)propyl]phenyl}-3-oxa-9-azabicyclo[3.3.1]non-6-ene-6-carboxylic acid cyclopropyl-[2-(3-hydroxypropoxy)-3-methylpyridin-4-ylmethyl]amide], the IC50 was determined as 0.55 nM.

`Cc1c(CN(C(=O)C2=C(c3ccc(CCCOc4c(F)ccc(F)c4Cl)cc3)CC3CS(=O)(=O)CC2N3)C2CC2)ccnc1OCCCO` (racemic) [Example 3, (rac.)-(1R*, 5S*)-7-14-[3-(2-Chloro-3,6-difluorophenoxy)propyl]phenyl}-3,3-dioxo-3λ^6-thia-9-azabicyclo[3.3.1]non-6-ene-6-carboxylic acid cyclopropyl-[2-(3-hydroxypropoxy)-3-methylpyridin-4-ylmethyl]amide]: the IC50 worked out at 5.51 nM.

For the origin of these results see patent US20070135405A1, “Novel diazabicyclononene and tetrahydropyridine derivatives with a new polar side-chain” (priority 2003, published 2007).
